The experiment has as its target T1, COX-2 (cyclooxygenase-2) (Homo sapiens, UniProt P35354).
T1 construct: gene PTGS2
T1 sequence (P35354 18-604): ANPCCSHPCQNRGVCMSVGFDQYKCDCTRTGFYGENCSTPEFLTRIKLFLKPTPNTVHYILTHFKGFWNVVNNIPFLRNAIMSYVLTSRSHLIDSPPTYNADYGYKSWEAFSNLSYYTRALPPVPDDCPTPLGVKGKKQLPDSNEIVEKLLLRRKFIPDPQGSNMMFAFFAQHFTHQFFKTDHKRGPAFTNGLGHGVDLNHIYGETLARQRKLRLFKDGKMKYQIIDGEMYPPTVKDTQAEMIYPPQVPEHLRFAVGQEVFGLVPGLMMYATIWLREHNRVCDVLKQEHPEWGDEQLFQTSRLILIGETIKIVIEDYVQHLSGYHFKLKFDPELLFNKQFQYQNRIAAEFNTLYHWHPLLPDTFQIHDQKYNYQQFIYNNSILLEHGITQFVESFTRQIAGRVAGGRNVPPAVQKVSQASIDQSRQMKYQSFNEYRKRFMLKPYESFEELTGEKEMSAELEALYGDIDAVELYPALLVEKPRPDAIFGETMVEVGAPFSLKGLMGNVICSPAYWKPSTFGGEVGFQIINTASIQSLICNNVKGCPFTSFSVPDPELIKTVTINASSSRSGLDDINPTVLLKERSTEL
In words: COX-2 enzyme assay with ELISA kit (SEA699Hu). The experiment is classed as biochemical.

`O=C(OCc1ccc(Cl)cc1)c1ccccc1NCc1ccc(Cl)cc1` [CCAB, 4-chlorobenzyl 2-((4-chlorobenzyl)amino)benzoate] showed an IC50 of 410 nM.

The term IC50 denotes the concentration needed to halve the response being measured. A high value points to weaker potency.

(Values after paper PMC10466176, “Sequential analysis for identification of byproduct from N-benzylation reaction: wound healing and anti-inflammatory potential of the byproduct 4-chlorobenzyl 2-((4-chlorobenzyl)amino)benzoate” (RSC Advances, 2023).)
